# pIC50: −log10 of the molar value.
# Experiments:
# [1] = tested on: pERK in ASPC1 cells; experiment: Inhibition of KRas phosphorylation of ERK (Cisbio HTRF pERK assay); settings: Homo sapiens, ASPC1, read-out: Inhibition (HTRF IC50) of KRas-mediated Phosphorylation of ERK, AsPC-1
# Description: To harvest cells from flask using 0.05% Trypsin/EDTA solution. Add 10 mL of media to stop trypsinizing. Pipette the cells into a conical bottom 50 mL centrifuge tube and centrifuge 5 min×1000 rpm. • 2. Re-suspend the cell pellet in media, take a cell count, and then adjust the cell density using fresh media. • 3. Seed 6,000 cells into cell culture plate with 50 μL media. […] Incubate cell plate overnight in a 37° C., 5% CO2 incubator. • Compound titrations • 1. Use Tecan to complete the compound addition. Compounds start from 10 uM top, 3-fold dilution, and 10 doses. The final DMSO concentration is 0.8%. Dispensed 0.2 uM Trametinib as Min control. • 2. Incubate cell plate for 3 hrs in the incubator. • Detection with cisbio pERK HTRF kit • 1. […] At the end of the compound treatment, flick-off the media. • 3. Add 35 μL of lysis buffer per well using a Multidrop Combi. Then place on a plate agitator shaking at 300 rpm at 4° C. for 40 mins. • 4. Make up the HTRF antibody buffer. For each assay plate, mix 50 μL of d2-conjugate antibody with 950 μL of detection buffer. Similarly, mix 50 μL of Cryptate antibody with 950 μL of detection buffer. Then mix the two diluted antibodies together. • 5. Dispense 3.4 μL the antibody buffer to wells of an empty assay plate. Seal the plate and centrifuge plate 30 sec×1000 rpm. • 6. At the end of the 4° C. lysis, centrifuge the lysate plates 3 mins×1500 rpm. • 7. Use the Bravo to transfer 13.6 μL of lysate from cell culture plate to assay plate.
# Then incubate assay plate for 2 hrs at room temperature. […] At the end of incubation, read plate on the Envision after centrifuging plate 30 sec× • 1000 rpm.
# [2] = tested on: pERK in MKN1 cells; experiment: as above; settings: Homo sapiens, MKN-1, 3 h, read-out: Inhibition (HTRF IC50) of KRas-mediated Phosphorylation of ERK, MKN1
# [3] = tested on: pERK in H727 cells; experiment: as above; settings: Homo sapiens, NCI-H727, read-out: Inhibition (HTRF IC50) of KRas-mediated Phosphorylation of ERK, H727
# [4] = biological target: KRas G12V (Homo sapiens, UniProt P01116, G12V); experiment: biochemical;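 also: KRas binding measured by TR-FRET displacement at room temperature, IC50 fitted from percent of control values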
# Description: (§1) The ability of a compound to bind to KRas was measured using a TR-FRET displacement assay. […] After a 60-minute incubation at room temperature, the reaction was measured using a BMG LABTECH CLARIO star Plus via TR-FRET. […] The POC values were fit to a 4-parameter IC50 equation and the IC50 value reported.
# [5] = biological target: KRas G12R (Homo sapiens, UniProt P01116, G12R); experiment: biochemical;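 also: TR-FRET displacement assay of compound binding to KRas, read after one hour at room temperature, potency from a four-parameter fit of percent-of-control values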
# Description: as §1
# [6] = biological target: KRas G12D (Homo sapiens, UniProt P01116, G12D); experiment: biochemical;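 also: TR-FRET displacement binding assay on KRas, read after a one-hour incubation at room temperature, IC50 fitted from percent-of-control values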
# Description: as §1
# [7] = tested on: pERK in PSN1 cells; experiment: Inhibition of KRas phosphorylation of ERK (Cisbio HTRF pERK assay); settings: Homo sapiens, PSN1, 3 h, read-out: Inhibition (HTRF IC50) of KRas-mediated Phosphorylation of ERK, PSN1
# KRas G12R, sequence (P01116 1-169 isoform P01116-2 G12R): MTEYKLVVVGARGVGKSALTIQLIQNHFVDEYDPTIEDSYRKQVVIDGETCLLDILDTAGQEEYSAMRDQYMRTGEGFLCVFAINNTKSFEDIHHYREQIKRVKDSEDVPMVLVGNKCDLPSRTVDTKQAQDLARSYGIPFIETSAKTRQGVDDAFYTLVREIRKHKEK
# KRas G12V, sequence (P01116 1-169 isoform P01116-2 G12V): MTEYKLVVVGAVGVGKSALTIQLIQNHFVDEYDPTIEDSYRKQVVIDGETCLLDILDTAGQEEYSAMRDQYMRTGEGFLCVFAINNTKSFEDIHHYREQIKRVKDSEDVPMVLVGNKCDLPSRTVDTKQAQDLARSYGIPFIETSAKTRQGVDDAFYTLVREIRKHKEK
# KRas G12D, sequence (P01116 1-169 isoform P01116-2 G12D): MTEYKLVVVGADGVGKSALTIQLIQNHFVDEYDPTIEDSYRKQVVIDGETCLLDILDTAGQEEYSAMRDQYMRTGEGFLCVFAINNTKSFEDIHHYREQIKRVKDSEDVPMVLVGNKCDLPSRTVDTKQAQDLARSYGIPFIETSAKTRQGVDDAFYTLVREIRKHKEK
pIC50 [1],pIC50 [2],pIC50 [3],pIC50 [4],pIC50 [5],pIC50 [6],pIC50 [7],SMILES
5.87,6.53,6.33,8.52,8.40,8.30,≤ 5.00,"CCc1c(F)ccc2cc(O)cc(-c3ncc4c(NCC5NC(=O)NC5=O)nc(OC[C@@]56CCCN5C[C@H](F)C6)nc4c3F)c12 (stereo partly drawn) [Example 369, 5-(((7-(8-ethyl-7-fluoro-3-hydroxynaphthalen-1-yl)-8-fluoro-2-(((2R,7aS)-2-fluorohexahydro-1H-pyrrolizin-7a-yl)methoxy)pyrido[4,3-d]pyrimidin-4-yl)amino)methyl)imidazolidine-2,4-dione]"
5.53,6.48,6.29,≥ 8.70,8.30,7.96,≤ 5.00,"CCc1c(F)ccc2cc(O)cc(-c3ncc4c(NCC5CNC(=O)N5)nc(OC[C@@]56CCCN5C[C@H](F)C6)nc4c3F)c12 (stereo partly drawn) [Example 370, 4-(((7-(8-ethyl-7-fluoro-3-hydroxynaphthalen-1-yl)-8-fluoro-2-(((2R,7aS)-2-fluorohexahydro-1H-pyrrolizin-7a-yl)methoxy)pyrido[4,3-d]pyrimidin-4-yl)amino)methyl)imidazolidin-2-one]"
≤ 5.00,5.64,5.11,8.52,7.92,≥ 8.70,≤ 5.00,"CCc1c(F)ccc2cc(O)cc(-c3ncc4c(NCCC5CCC(=O)N5)nc(OC[C@@]56CCCN5C[C@H](F)C6)nc4c3F)c12 (stereo partly drawn) [Example 377, 5-(2-((7-(8-ethyl-7-fluoro-3-hydroxynaphthalen-1-yl)-8-fluoro-2-(((2R,7aS)-2-fluorotetrahydro-1H-pyrrolizin-7a(5H)-yl)methoxy)pyrido[4,3-d]pyrimidin-4-yl)amino)ethyl)pyrrolidin-2-one]"
≤ 5.00,6.11,5.23,≥ 8.70,8.52,8.05,≤ 5.00,"CCc1c(F)ccc2cc(O)cc(-c3ncc4c(NCCC5CNC(=O)N5)nc(OC[C@@]56CCCN5C[C@H](F)C6)nc4c3F)c12 (stereo partly drawn) [Example 382, 4-(2-((7-(8-ethyl-7-fluoro-3-hydroxynaphthalen-1-yl)-8-fluoro-2-(((2R,7aS)-2-fluorohexahydro-1H-pyrrolizin-7a-yl)methoxy)pyrido[4,3-d]pyrimidin-4-yl)amino)ethyl) imidazolidin-2-one]"
≤ 5.00,6.38,5.33,≥ 8.70,≥ 8.70,≥ 8.70,≤ 5.00,"CCc1c(F)ccc2cc(O)cc(-c3ncc4c(NCc5cc(C(N)=O)nn5C)nc(OC[C@@]56CCCN5C[C@H](F)C6)nc4c3F)c12 [Example 385, 5-(((7-(8-ethyl-7-fluoro-3-hydroxynaphthalen-1-yl)-8-fluoro-2-(((2R,7aS)-2-fluorohexahydro-1H-pyrrolizin-7a-yl)methoxy)pyrido[4,3-d]pyrimidin-4-yl)amino)methyl)-1-methyl-1H-pyrazole-3-carboxamide]"
6.32,6.52,5.86,≥ 8.70,≥ 8.70,≥ 8.70,≤ 5.00,"C#Cc1c(F)ccc2cc(O)cc(-c3ncc4c(N5CCCC6(CNC(=O)N6)C5)nc(OC[C@@]56CCCN5C[C@H](F)C6)nc4c3F)c12 (stereo partly drawn) [Example 395, 7-(7-(8-ethynyl-7-fluoro-3-hydroxynaphthalen-1-yl)-8-fluoro-2-(((2R,7aS)-2-fluorohexahydro-1H-pyrrolizin-7a-yl)methoxy)pyrido[4,3-d]pyrimidin-4-yl)-1,3,7-triazaspiro[4.5]decan-2-one]"
5.51,6.28,5.13,8.52,8.52,≥ 8.70,≤ 5.00,"C#Cc1c(F)ccc2cc(O)cc(-c3ncc4c(N5CCCC6(CNS(=O)(=O)N6)C5)nc(OC[C@@]56CCCN5C[C@H](F)C6)nc4c3F)c12 (stereo partly drawn) [Example 396, 7-(7-(8-ethynyl-7-fluoro-3-hydroxynaphthalen-1-yl)-8-fluoro-2-(((2R,7aS)-2-fluorohexahydro-1H-pyrrolizin-7a-yl)methoxy)pyrido[4,3-d]pyrimidin-4-yl)-2-thia-1,3,7-triazaspiro[4.5]decane 2,2-dioxide]"
6.06,6.51,6.13,8.30,7.96,8.40,≤ 5.00,"O=C1NCC12CCCN(c1nc(OC[C@@]34CCCN3C[C@H](F)C4)nc3c(F)c(-c4cc(O)cc5ccc(F)c(Br)c45)ncc13)C2 (stereo partly drawn) [Example 406, 6-(7-(8-bromo-7-fluoro-3-hydroxynaphthalen-1-yl)-8-fluoro-2-(((2R,7aS)-2-fluorohexahydro-1H-pyrrolizin-7a-yl)methoxy)pyrido[4,3-d]pyrimidin-4-yl)-2,6-diazaspiro[3.5]nonan-1-one]"
6.14,6.45,6.24,≥ 8.70,≥ 8.70,≥ 8.70,≤ 5.00,"Nc1cc2n(n1)CCCN(c1nc(OC[C@@]34CCCN3C[C@H](F)C4)nc3c(F)c(-c4cc(O)cc5ccc(F)c(Br)c45)ncc13)C2 [Example 408, 4-(4-(2-amino-7,8-dihydro-4H-pyrazolo[1,5-a][1,4]diazepin-5(6H)-yl)-8-fluoro-2-(((2R,7aS)-2-fluorohexahydro-1H-pyrrolizin-7a-yl)methoxy)pyrido[4,3-d]pyrimidin-7-yl)-5-bromo-6-fluoronaphthalen-2-ol]"
6.25,6.96,5.65,≥ 8.70,≥ 8.70,≥ 8.70,≤ 5.00,"O=C1NC(=O)C2CN(c3nc(OC[C@@]45CCCN4C[C@H](F)C5)nc4c(F)c(-c5cc(O)cc6ccc(F)c(Cl)c56)ncc34)CC12 (stereo partly drawn) [Example 423, 5-(7-(8-chloro-7-fluoro-3-hydroxynaphthalen-1-yl)-8-fluoro-2-(((2R,7aS)-2-fluorohexahydro-1H-pyrrolizin-7a-yl)methoxy)pyrido[4,3-d]pyrimidin-4-yl)tetrahydropyrrolo[3,4-c]pyrrole-1,3(2H,3aH)-dione]"
6.09,7.02,5.89,8.40,8.10,8.52,5.55,"O=C1NCC12CCCN(c1nc(OC[C@@]34CCCN3C[C@H](F)C4)nc3c(F)c(-c4cc(O)cc5ccc(F)c(Cl)c45)ncc13)C2 (stereo partly drawn) [Example 424, 6-(7-(8-chloro-7-fluoro-3-hydroxynaphthalen-1-yl)-8-fluoro-2-(((2R,7aS)-2-fluorohexahydro-1H-pyrrolizin-7a-yl)methoxy)pyrido[4,3-d]pyrimidin-4-yl)-2,6-diazaspiro[3.5]nonan-1-one]"
6.19,6.58,5.91,≥ 8.70,≥ 8.70,≥ 8.70,≤ 5.00,"Nc1cc2n(n1)CCCN(c1nc(OC[C@@]34CCCN3C[C@H](F)C4)nc3c(F)c(-c4cc(O)cc5ccc(F)c(Cl)c45)ncc13)C2 [Example 426, 4-(4-(2-amino-7,8-dihydro-4H-pyrazolo[1,5-a][1,4]diazepin-5(6H)-yl)-8-fluoro-2-(((2R,7aS)-2-fluorohexahydro-1H-pyrrolizin-7a-yl)methoxy)pyrido[4,3-d]pyrimidin-7-yl)-5-chloro-6-fluoronaphthalen-2-ol]"
5.31,5.98,5.52,7.55,7.32,7.64,≤ 5.00,"CCc1c(F)ccc2cc(O)cc(-c3ncc4c(N5CCCC6(C5)C[S+]([O-])C6)nc(OC[C@@]56CCCN5C[C@H](F)C6)nc4c3F)c12 (stereo partly drawn) [Example 484, 6-(7-(8-ethyl-7-fluoro-3-hydroxynaphthalen-1-yl)-8-fluoro-2-(((2R,7aS)-2-fluorohexahydro-1H-pyrrolizin-7a-yl)methoxy)pyrido[4,3-d]pyrimidin-4-yl)-2-thia-6-azaspiro[3.5]nonane 2-oxide]"
5.77,6.74,5.81,8.40,8.22,8.40,≤ 5.00,"CCc1c(F)ccc2cc(O)cc(-c3ncc4c(N5C[C@H](O)CC[C@H](O)C5)nc(OC[C@@]56CCCN5C[C@H](F)C6)nc4c3F)c12 [Example 491, (3R,6S)-1-(7-(8-ethyl-7-fluoro-3-hydroxynaphthalen-1-yl)-8-fluoro-2-(((2R,7aS)-2-fluorohexahydro-1H-pyrrolizin-7a-yl)methoxy)pyrido[4,3-d]pyrimidin-4-yl)azepane-3,6-diol]"
5.96,6.62,5.72,6.98,6.99,6.63,≤ 5.00,"CCc1c(F)ccc2cc(O)cc(-c3ncc4c(N5CCOCC6(CCOCC6)C5)nc(OC[C@@]56CCCN5C[C@H](F)C6)nc4c3F)c12 [Example 500, 5-ethyl-6-fluoro-4-(8-fluoro-2-(((2R,7aS)-2-fluorohexahydro-1H-pyrrolizin-7a-yl)methoxy)-4-(3,8-dioxa-11-azaspiro[5.6]dodecan-11-yl)pyrido[4,3-d]pyrimidin-7-yl)naphthalen-2-ol]"
